Measurements from patent US20220146492A1, “CELL MEMBRANE PERMEABILITY RESTORING THERAPY” (priority 2019, published 2022).

System: RBCs
Experiment: Cell scan of RBC membrane permeability (Pk0) after contacting whole blood from a healthy volunteer with an agent
Type: cell-based, human
Conditions: for Induction of water permeability resistance (decreased RBC membrane permeability to water): agents at concentrations consistent with in vivo concentration; for Pk0 (mOsm/kg): whole blood in ACD, healthy volunteer, measured after exposure (method: five minutes), lactose 1:20 (v/v) saturated lactose solution, amphotericin B 0.5 μg/mL
Description: A sample of whole blood from a healthy volunteer was drawn into ACD anticoagulant. The unwashed sample was divided into aliquots and was analyzed using the Prior Shine Technology and/or the Provided Cell Scanning Technologies. The following outputs were obtained from the sample:
Using the technologies described herein, a cell-by-cell analysis was converted into a plot of percent change of cell volume vs. osmolality (“Cell Scan Plot”) by converting the individual peak voltage into a cell volume, then calculating a mean volume for an aliquot of cells, and plotting the means to generate the Cell Scan Plot. The percentage change of cell volume at each osmolality is calculated and compared to the mean cell volume of an isotonic cell (e.g., FIG. 1b). On such a plot, Pk0 (see 101) is the osmotic pressure at which the net water flow is zero (i.e., when a cell achieved its maximum volume, i.e., when it is a perfect sphere). As described herein, in some embodiments, Pk0 can be used as an indicator of an individual's health status.
A sample of whole blood from a healthy volunteer was drawn into ACD anticoagulant. Blood samples were divided into aliquots, and each sample was contacted with an agent at concentrations consistent with the agent's in vivo concentration. Agents that were tested included alcohols, alpha fetoproteins, amphotericin B, bovine albumen, carcinoembryonic antigen (CEA), concanavalin A (Con A), fetuin, fibronectin, 5-HT, kallikrein, ovomucoid, prostacyclin, prostaglandin, semen, transferrin, and several sugars, including N-acetyl-D-glucosamine, N-acetyl neurominic acid, 2-deoxy-D-ribose, fructose, D- and L-arabinose, beta-D-galactopyranoside, erythrose, D- and L-fucose, D- and L-glucose, D-galactose, lactose, maltose, iso-maltose, D-mannose, mannitol, L-rhamnose, ribose, sucrose, and D-xylose. Five minutes after exposure to an agent, the blood sample was evaluated for cell membrane permeability and Pk0 was measured. […] Lactose ([…]) lowered Pk0 to 110 mOsm/kg.
A sample of whole blood from a healthy volunteer was drawn into ACD anticoagulant. The sample was then treated with 5-HT (900 ng/mL), and cell membrane permeability was evaluated 5 minutes after treatment.

SMILES	Pk0 after treatment with 5-HT (5-HT 900 ng/mL, 5 minutes after treatment, normal Pk0 before approx. 140 mOsm/kg (FIG. 8))	Pk0 shift after contacting with 5-HT (FIG. 8, RBCs from normal healthy individual, before vs after 5-HT)	Induction of water permeability resistance (decreased RBC membrane permeability to water)	Pk0 (mOsm/kg) (5-HT 900 ng/mL)	Pk0 lowered to (after 10 minutes) [mOsm/kg]
NCCc1c[nH]c2ccc(O)cc12 [Agent 5-HT, 5-hydroxytryptamine]	approx. 110 mOsm/kg	approx. 30 mOsm/kg	effective within minutes	110	–
C[C@@H]1[C@H](O)[C@@H](C)/C=C/C=C/C=C/C=C/C=C/C=C/C=C/[C@H](O[C@@H]2O[C@H](C)[C@@H](O)[C@H](N)[C@@H]2O)C[C@@H]2O[C@](O)(C[C@@H](O)C[C@@H](O)[C@H](O)CC[C@@H](O)C[C@@H](O)CC(=O)O[C@H]1C)C[C@H](O)[C@H]2C(=O)O [Amphotericin B]	–	–	identified as RBC membrane permeability decreasing agents	85	–
OC[C@H]1O[C@@H](O[C@H]2[C@H](O)[C@@H](O)C(O)O[C@@H]2CO)[C@H](O)[C@@H](O)[C@H]1O (stereo partly drawn) [Lactose]	–	–	identified as RBC membrane permeability decreasing agents	110	110
